# Results as given in US10076519B2 (CYTOKINETICS, INC., priority 2010, dated 2018).
# Test system: rabbit skeletal myofibrils (fast skeletal myofibrils)
# Assay: Activation of fast skeletal myofibrils (PUMA assay, PK/LDH-coupled ATPase at pCa25)
# Type: biochemical
# Details: AC1.4 determined according to the procedure of Example 39; reported as class symbols
# Protocol: Preparation of Fast Skeletal Myofibrils.
# Rabbit skeletal myofibrils were prepared based upon the method of Herrmann et al. (Biochem. 32(28):7255-7263(1993). Myofibrils were prepared from rabbit psoas muscle purchased from Pel-Freez Biologicals (Arkansas) within 2 days of ordering, stored on ice. Minced muscle was homogenized in 10 volumes of ice-cold “standard” buffer (50 mM Tris, pH 7.4, 0.1M potassium acetate, 5 mM KCl, 2 mM DTT, 0.2 mM PMSF, 10 μM leupeptin, 5 μM pepstatin, and 0.5 mM sodium azide) containing 5 mM EDTA and 0.5% Triton X-100 using an Omni-Macro homogenizer. Myofibrils were recovered by low speed centrifugation (3000 rpm for 10 minutes) and washed 2 times in the Triton X-100 containing buffer to ensure removal of cellular membrane. Following the Triton washes, myofibrils were washed 3 times in “standard” buffer containing 2 mM magnesium acetate. A final wash in assay buffer (12 mM PIPES, pH 6.8, 60 mM KCl, 1 mM DTT) was performed and brought to 10% sucrose for flash freezing in liquid nitrogen and storage at −80° C.
# Activation of Fast Skeletal Myofibrils.
# Fast fiber activators were identified by measuring the enzymatic activity of muscle myofibril preparations using the proprietary PUMA™ (see, e.g., U.S. Pat. Nos. 6,410,254, 6,743,599, 7,202,051, and 7,378,254) assay system. Myofibril preparations consisted of rabbit skeletal muscle (approximately 90% fast fibers) that had been mechanically homogenized and washed with a detergent (triton X-100) to remove cellular membranes. This preparation retained all of the sarcomeric components in a native conformation and the enzymatic activity was still regulated by calcium. Compounds were tested using a myofibril suspension and a level of calcium sufficient to increase enzymatic activity of the myofibrils to 25% of their maximal rate (termed pCa25). Enzymatic activity was tracked via a pyruvate kinase and lactate dehydrogenase-coupled enzyme system. This assay regenerates myosin-produced ADP into ATP by oxidizing NADH, producing an absorbance change at 340 nm. The buffering system was 12 mM Pipes, 2 mM MgCl2, 1 mM DTT at pH 6.8 (PM12 buffer).
# Using procedures similar to those described herein, utilizing reagents and intermediates commercially available (e.g., Sigma-Aldrich, St. Louis, Mo.) or readily synthesized by one of skill in the art, the compounds in Table 2 were synthesized, characterized and tested. AC1.4 values were determined according to the procedure described in Example 39, and the reported median AC1.4 values are as follows: A=<1 uM; B=1-10 uM; C=10-20 uM; D=>20 uM.
row,SMILES,Mean AC1.4
1,NC(=O)c1cc(C(N)=O)cc(-c2ccc(NCC3(c4ncccc4F)CCC3)nn2)c1,B (B=1-10 uM)
2,Fc1ccc(C2(CNc3ccc(-c4ccc5[nH]ncc5c4)nn3)CCC2)cc1 [(6-(1H-indazol-5-yl)pyridazin-3-yl){[(4-fluorophenyl)cyclo-butyl]methyl}amine],A (A=<1 uM)
3,CC(C)(CNc1ccc(-c2ccc3[nH]nc(N)c3c2)nn1)c1cccc(C#N)c1,A (A=<1 uM)
4,Cc1nc2ccc(-c3ccc(NCC(C)(C)c4ccc(F)cc4)nn3)cc2o1 [[2-(4-fluorophenyl)-2-methylpropyl][6-(2-methylbenzoxazol-6-yl)pyridazin-3-yl]amine],B (B=1-10 uM)
5,CC(C)(CNc1ccc(-c2cncc(C(N)=O)c2)nn1)c1ccc(F)cc1 [5-(6-{[2-(4-fluorophenyl)-2-methylpropyl]amino}pyridazin-3-yl)pyridine-3-carboxamide],B (B=1-10 uM)
6,NC(=O)c1cccc(-c2ccc(NCCc3cnccn3)nn2)c1 [3-{6-[(2-pyrazin-2-ylethyl)amino]pyridazin-3-yl}benzamide],D (D=>20 uM)
7,"CN(C)C(=O)n1nc(N)c2cc(-c3ccc(NCC(C)(C)c4ccc(F)cc4)nn3)ccc21 [[3-amino-5-(6-{[2-(4-fluorophenyl)-2-methylpropyl]amino}pyridazin-3-yl)(1H-indazolyl)]-N,N-dimethylcarboxamide]",B (B=1-10 uM)
8,NC(=O)c1cccc(-c2ccc(NCC3(c4cnccn4)CCC3)nn2)c1,D (D=>20 uM)
9,Oc1ccnc(C2(CNc3ccc(-c4ccc5cn[nH]c5c4)nn3)CCC2)c1,D (D=>20 uM)
10,COc1ncc(-c2ccc(NCC(C)(C)c3ccc(F)cc3)nn2)cn1 [[2-(4-fluorophenyl)-2-methylpropyl][6-(2-methoxypyrimidin-5-yl)pyridazin-3-yl]amine],C (C=10-20 uM)
11,"CC(C)(CNc1ccc(-c2cccc(C(N)=O)c2)nn1)c1ccc(F)cc1F [3-(6-{[2-(2,4-difluorophenyl)-2-methylpropyl]amino}pyridazin-3-yl)benzamide]",B (B=1-10 uM)
12,Nc1cccc(-c2ccc(NCC3(c4ncccc4F)CCC3)nn2)c1 [[6-(3-aminophenyl)pyridazin-3-yl]{[(3-fluoro(2-pyridyl))cyclobutyl]methyl}amine],A (A=<1 uM)
13,CC(C)(C)OC(=O)NCCNc1n[nH]c2ccc(-c3ccc(NCC(C)(C)c4ccc(F)cc4)nn3)cc12 [(tert-butoxy)-N-(2-{[5-(6-{[2-(4-fluorophenyl)-2-methylpropyl]amino}pyridazin-3-yl)(1H-indazol-3-yl)]amino}ethyl)carboxamide],A (A=<1 uM)

# Same assay, conditions: median AC1.4 class, procedure of Example 39
row,SMILES,Mean AC1.4
1,NC(=O)c1ccc(F)c(-c2ccc(NC3(c4ncccc4O)CCC3)nn2)c1,D (D=>20 uM)
2,"O=C(NCc1cnc(-c2ccc(NCC3(c4ncccc4F)CCC3)nn2)s1)c1cn[nH]n1 [2H-1,2,3-triazol-4-yl-N-({2-[6-({[(3-fluoro(2-pyridyl))cyclobutyl]methyl}ami-no)pyridazin-3-yl](1,3-thiazol-5-yl)}methyl)carboxamide]",A (A=<1 uM)
3,Nc1n[nH]c2ccc(-c3ccc(NC4(c5ncccc5F)CCC4)nn3)cc12 [[6-(3-amino(1H-indazol-5-yl))pyridazin-3-yl][(3-fluoro(2-pyridyl))cyclobutyl]amine],B (B=1-10 uM)
4,NC(=O)Nc1ccc(-c2ccc(NCC3(c4ncccc4F)CC(F)(F)C3)nn2)cc1,A (A=<1 uM)
5,N#Cc1ccc(F)c(-c2ccc(NC3(c4ncccc4F)CCC3)nn2)c1,B (B=1-10 uM)
6,NC(=O)c1csc(-c2ccc(NCC3(c4ncccc4F)CCC3)nn2)n1,D (D=>20 uM)
7,NS(=O)(=O)c1cccc(-c2ccc(NC[C@]3(c4ncccc4F)C[C@H](F)C3)nn2)c1 [3-[6-({[3-fluoro-1-(3-fluoro(2-pyridyl))cyclobutyl]methyl}ami-no)pyridazin-3-yl]benzenesulfonamide],B (B=1-10 uM)
8,COC(=O)c1c[nH]c(-c2ccc(NCC3(c4ncccc4F)CCC3)nn2)n1 [methyl 2-[6-({[(3-fluoro-2-pyridyl)cyclobutyl]methyl}ami-no)pyridazin-3-yl]imidazole-4-carboxylate],D (D=>20 uM)
9,O=C1Cc2cc(-c3ccc(NCC4(c5ncccc5F)CCC4)nn3)ccc2N1,B (B=1-10 uM)
10,"NC(=O)Cn1nnc(-c2ccc(NCC3(c4ncccc4F)CCC3)nn2)n1 [2-{5-[6-({[(3-fluoro-2-pyridyl)cyclobutyl]methyl}ami-no)pyridazin-3-yl]-1,2,3,4-tetraazol-2-yl}acetamide]",D (D=>20 uM)
11,"CC(=O)NCc1cnc(-c2ccc(NCC3(c4ncccc4F)CCC3)nn2)s1 [N-({2-[6-({[(3-fluoro-2-pyridyl)cyclobutyl]methyl}ami-no)pyridazin-3-yl]-1,3-thiazol-5-yl}methyl)acetamide]",A (A=<1 uM)
12,"NC(=O)c1sc(-c2ccc(NCC3(c4ncccc4F)CCC3)nn2)nc1O [2-[6-({[(3-fluoro(2-pyridyl))cyclobutyl]methyl}ami-no)pyridazin-3-yl]-4-hydroxy-1,3-thiazole-5-carboxamide]",B (B=1-10 uM)
13,"O=c1[nH]nc(-c2ccc(NCC3(c4ncccc4F)CCC3)nn2)[nH]1 [3-[6-({[(3-fluoro-2-pyridyl)cyclobutyl]methyl}ami-no)pyridazin-3-yl]-1,2,4-triazolin-5-one]",C (C=10-20 uM)
14,"OC(c1cnc(-c2ccc(NCC3(c4ncccc4F)CCC3)nn2)s1)C(F)F (stereo not shown) [2,2-difluoro-1-{2-[6-({[(3-fluoro(2-pyridyl))cyclobutyl]methyl}ami-no)pyridazin-3-yl](1,3-thiazol-5-yl)}ethan-1-ol]",B (B=1-10 uM)
15,COC(=O)N1CC(c2ccc(NCC3(c4ncccc4F)CCC3)nn2)C1,D (D=>20 uM)

# Same assay, conditions: median AC1.4 reported as class; procedure of Example 39
row,SMILES,Mean AC1.4
1,Nc1ncc(-c2ccc(NC[C@]3(c4ncccc4F)C[C@H](F)C3)nn2)cn1 [[6-(2-aminopyrimidin-5-yl)pyridazin-3-yl]{[3-fluoro-1-(3-fluoro(2-pyridyl))cyclobutyl]methyl}amine],B (B=1-10 uM)
2,"OC[C@@H]1CNCCN1Cc1cnc(-c2ccc(NCC3(c4ncccc4F)CCC3)nn2)s1 [[(2S)-1-({2-[6-({[(3-fluoro(2-pyridyl))cyclobutyl]methyl}ami-no)pyridazin-3-yl](1,3-thiazol-5-yl)}methyl)piperazin-2-yl]methan-1-ol]",B (B=1-10 uM)
3,N#Cc1cc(Br)cc(-c2ccc(NCC3(c4ncccc4F)CCC3)nn2)c1O [5-bromo-3-[6-({[(3-fluoro(2-pyridyl))cyclobutyl]methyl}ami-no)pyridazin-3-yl]-2-hydroxybenzenecarbonitrile],A (A=<1 uM)
4,O=C(O)c1ccc(O)c(-c2ccc(NCC3(c4ncccc4F)CCC3)nn2)c1 [3-[6-({[(3-fluoro(2-pyridyl))cyclobutyl]methyl}ami-no)pyridazin-3-yl]-4-hydroxybenzoic acid],C (C=10-20 uM)
5,"O=C(O)Cc1cnc(-c2ccc(NCC3(c4ncccc4F)CCC3)nn2)s1 [2-{2-[6-({[(3-fluoro-2-pyridyl)cyclobutyl]methyl}ami-no)pyridazin-3-yl]-1,3-thiazol-5-yl}acetic acid]",B (B=1-10 uM)
6,NC(=O)Cc1ccc(F)c(-c2ccc(NCC3(c4ncccc4F)CCC3)nn2)c1 [2-{4-fluoro-3-[6-({[(3-fluoro(2-pyridyl))cyclobutyl]methyl}ami-no)pyridazin-3-yl]phenyl}acetamide],B (B=1-10 uM)
7,O=C(N[C@H]1CCNC1=O)c1ccc(NCC2(c3ncccc3F)CCC2)nn1 [N-((3S)-2-oxopyrrolidin-3-yl)[6-({[(3-fluoro(2-pyridyl))cyclobutyl]methyl}ami-no)pyridazin-3-yl]carboxamide],D (D=>20 uM)
8,"NC(=O)Cc1cnc(-c2ccc(NC[C@]3(c4ncccc4F)C[C@H](F)C3)nn2)s1 [2-{2-[6-({[3-fluoro-1-(3-fluoro(2-pyridyl))cyclobutyl]methyl}ami-no)pyridazin-3-yl]-1,3-thiazol-5-yl}acetamide]",B (B=1-10 uM)
9,CC(=O)NCc1ccc(F)c(-c2ccc(NC[C@]3(c4ncccc4F)C[C@H](F)C3)nn2)c1 [N-({4-fluoro-3-[6-({[3-fluoro-1-(3-fluoro(2-pyridyl))cyclobutyl]methyl}ami-no)pyridazin-3-yl]phenyl}methyl)acetamide],B (B=1-10 uM)
